Like-named read-outs stand apart in the source and are kept apart here.
What was measured:
LoVo = assay: Antiproliferative SRB assay, LoVo; assay type: cell-based, human; settings: for IC50: 72 h, SRB, mean ± SD, read-out: IC50 LoVo; for SI LoVo: SI = IC50 BALB/3T3 / IC50 LoVo
From the text: (§1) Four human cancer cell lines and one normal cell line were used to evaluate anticancer activity of SAL and its N-benzyl amides: human acute promyelocytic leukemia (HL-60) and its vincristine resistant subline (HL-60/vinc), human colon adenocarcinoma cell lines sensitive (LoVo) and resistant to doxorubicin (LoVo/dx) as well as also normal murine embryonic fibroblast cell line (BALB/3T3). The BALB/3T3 cell line was purchased from the American Type Culture Collection (ATCC Rockville, MD, USA), HL-60 cell line from European Type Culture Collection by courtesy of Professor Spik and Dr Mazurier (Laboratory of Biological Chemistry USTL, Lille, France) and HL-60/vinc, LoVo and LoVo/dx by courtesy of Prof. E. Borowski (Technical University of Gdańsk, Gdańsk, Poland). All the cell lines are maintained in the Institute of Immunology and Experimental Therapy (IIET), Wrocław, Poland.
(§2) Human leukemia cells were cultured in ISCOVE medium (IIET, Wroclaw, Polond) containing 10% fetal bovine serum and 2 mM L-glutamine (Sigma Aldrich) and 1 µg/100 mL […] for HL-60/vinc (Sigma Aldrich). Human colon adenocarcinoma cell lines were cultured in mixture of OptiMEM and RPMI 1640 (1:1) medium (IIET) supplemented with 5% fetal bovine serum (Thermo Fisher Scientific, Waltham, MA, USA), 2 mM L-glutamine, 1 mM sodium pyruvate (Sigma Aldrich) and 10 µg/100 mL doxorubicin for LoVo/dx (Sigma Aldrich). Murine embryonic fibroblast cells were cultured in Dulbecco medium (Gibco, Darmstadt, Germany) supplemented with 10% fetal bovine serum (Thermo Fisher Scientific) and 2 mM L-glutamine (Sigma Aldrich). All culture media contained antibiotics: 100 U/mL penicillin (Sigma Aldrich) and 100 µg/mL streptomycin (Polfa-Tarchomin, City, Poland). All cell lines were cultured during entire experiment in humid atmosphere at 37 °C and 5% CO2.
(§3) Twenty four hours before adding the tested compounds all cell lines were seeded in 96-well plates (Sarstedt, Nümbrecht, Germany) in appropriate media with 10^4 cells per well. All cell lines were exposed to each tested agent at four different concentrations from the range 100 to 0.1 µg/mL for 72 h. The cells were also exposed to the reference drugs: cisplatin (Accord, London, UK) and doxorubicin hydrochloride (Fluka, St. Louis, MO, USA). Additionally, all cell lines were exposed to DMSO (the solvent used for tested compounds, Sigma Aldrich) at the concentrations corresponding to those in the tested agent dilutions. For adherent cells sulphorodamine B assay was performed and MTT assay for leukemia cells.
(§4) After 72 h of incubation with tested compounds the cells were fixed in situ by gently adding of 50 µL per well of cold 50% trichloroacetic acid TCA (Avantor Performance Materials, City, Poland) and were incubated at 4 °C for 1 h. Then the wells were washed four times with water and air-dried. Next, 50 µL of 0.2% solution of sulphorodamine B (Sigma Aldrich) in 1% acetic acid (Avantor Performance Materials) were added to each well and plates were incubated at room temperature for 0.5 h. After incubation time, unbound dye was removed by washing plates four times with 1% acetic acid, whereas the stain bound to cells was solubilized with 150 µL of 10 mM Tris base (Sigma Aldrich). Absorbance of each solution was read at Synergy H4 photometer (BioTek Instruments, Winooski, VT, USA) at 540 nm wavelength.
(§5) Results are presented as mean IC50 (concentration of the tested compound that inhibits cell proliferation by 50%) ± standard deviation. IC50 values were calculated in Cheburator 1.0.2, Dmitry Nevozhay software for each experiment. Compounds at each concentration were tested in triplicates in single experiment and each experiment was repeated at least three times independently. The IR was defined as the ratio of IC50 for a given compound calculated for resistant cell line to that measured for its parental drug sensitive cell line (Table 4).

HL-60/vinc = assay: Antiproliferative MTT assay, HL-60/vinc; assay type: cell-based, human; settings: for IR HL-60/vinc: IR = IC50 HL-60/vinc / IC50 HL-60; for SI HL-60/vinc: SI = IC50 BALB/3T3 / IC50 HL-60/vinc; for IC50: vincristine-resistant subline, 72 h, MTT, mean ± SD, NA: not active in concentrations used (up to 100 µg/mL), read-out: IC50 HL-60/vinc
From the text: as §1, §2, §3
(§6) Proliferation inhibition of leukemia cells by tested compounds was measured by means of MTT assay. Thus, 20 µL of 3-(4,5-dimethylthiazol-2-yl)-2,5-diphenyl tetrazolium bromide solution (Sigma Aldrich) were added to each well and plates were left in cell incubator for 4 h to allow the cells to metabolize yellow MTT to blue formazan. Then, the lysing mixture consisting of 225 mL dimethylformamide, 67.5 g sodium dodecyl sulfate (both from Sigma Aldrich) and 275 mL of distilled water was added in 80 µL volume per well. Plates were incubated for 24 h for the formazan crystals to be released from cells, dissolved and then absorbance of each well was read at Synergy H4 photometer (BioTek Instruments) at 570 nm wavelength.
as §5

LoVo/dx = assay: Antiproliferative SRB assay, LoVo/dx; assay type: cell-based, human; settings: for IR LoVo/DX: IR = IC50 LoVo/dx / IC50 LoVo; for SI LoVo/DX: SI = IC50 BALB/3T3 / IC50 LoVo/dx; for IC50: doxorubicin resistant subline, 72 h, SRB, mean ± SD, read-out: IC50 LoVo/dx
From the text: as §1, §2, §3, §4, §5

BALB/3T3 = assay: Antiproliferative SRB assay, normal fibroblasts BALB/3T3; assay type: cell-based; settings: 72 h, mean ± SD, read-out: IC50 BALB/3T3 (normal cells)
From the text: as §1, with “Poland. […]” for “Poland.”
After 72 h of incubation with tested compounds the cells were fixed in situ by gently adding of 50 µL per well of cold 50% trichloroacetic acid TCA (Avantor Performance Materials, City, Poland) and were incubated at 4 °C for 1 h. […] Absorbance of each solution was read at Synergy H4 photometer (BioTek Instruments, Winooski, VT, USA) at 540 nm wavelength. […]

HL-60 = assay: Antiproliferative MTT assay, HL-60; assay type: cell-based, human; settings: for IC50: 72 h, MTT, mean ± SD, NA: not active in concentrations used (up to 100 µg/mL), read-out: IC50 HL-60; for SI HL-60: SI = IC50 BALB/3T3 / IC50 HL-60
From the text: as §1, §2, §3, §6, §5

IC50 (LoVo; Homo sapiens, LoVo) [nM]	IC50 (HL-60/vinc; Homo sapiens, HL60/vinc) [nM]	IC50 (LoVo/dx; Homo sapiens, LoVo/DX) [nM]	IC50 (HL-60; Homo sapiens, HL-60) [nM]	Compound	IC50 (LoVo) [nM]	SI LoVo (LoVo)	IR HL-60/vinc (HL-60/vinc)	SI HL-60/vinc (HL-60/vinc)	IC50 (HL-60/vinc) [nM]	IR LoVo/DX (LoVo/dx)	SI LoVo/DX (LoVo/dx)	IC50 (LoVo/dx) [nM]	IC50 (BALB/3T3; normal murine embryonic fibroblasts) [nM]	IC50 (HL-60) [nM]	SI HL-60 (HL-60)	IC50 (BALB/3T3; Mus musculus, BALB/3T3, normal murine embryonic fibroblasts) [nM]
				N.N.[Cl][Pt][Cl] [cisplatin, reference compound]	3700 ± 1200	1.43	6.87	0.77	6870 ± 1630	1.41	1.02	5200 ± 1930	5300 ± 2930	1000 ± 230	5.30	
150 ± 60	880 ± 260	5460 ± 1560	40 ± 40	COc1cccc2c1C(=O)c1c(O)c3c(c(O)c1C2=O)C[C@@](O)(C(=O)CO)C[C@@H]3O[C@H]1C[C@H](N)[C@H](O)[C@H](C)O1 [doxorubicin, reference compound]		1.20	22.00	0.20		36.40	0.03				4.50	180 ± 70

Reference: publication PMC6271077, “Synthesis, Anticancer and Antibacterial Activity of Salinomycin N-Benzyl Amides” (Molecules, 2014)
